Data published in patent US20100273200A1, “In-Vitro Model of Blood-Brain Barrier, In-Vitro Model of Diseased Blood-Brain Barrier, and Drug Screening Method, Analysis Method for Functions of Diseased Blood-Brain Barrier, and Analysis Method for Pathogenesis Using the Same” (priority 2005, published 2010).

Test system: ischemia-reperfusion BBB model
Experiment: Effects of radical scavenger edaravone on ischemia-reperfusion BBB model (TEER and Na—F permeability)
Assay type: cell-based, rat
Settings: edaravone added at the end of the 6 h ischemia period; 3 h reperfusion; FIG. 10
Procedure: TEER was measured with ENDOHM (manufactured by WPI). Then, the experiment on Na—F permeability was conducted.
1/PSapper=1/PSmembrane+1/PStrans.
FIG. 4 is a graph showing variation per day of transendothelial electrical resistance value measurement results of 7 coculture models prepared by the method shown in Example 4. FIG. 5 is a graph comparing transendothelial electrical resistance value measurement results among 7 coculture models prepared by the method shown in Example 4. Transendothelial Electrical Resistance (TEER) was measured with ENDOHM (manufactured by WPI). The electrical resistance value of each BBB model was measured from 2 to 7 days after model preparation. The TEER values of E00, E0A, and E0P were calculated by subtracting therefrom the electrical resistance value of only the membrane. The TEER values of EA0 ad EAP were calculated by subtracting therefrom the electrical resistance value of the membrane on which only the astrocytes were cultured. The TEER values of EP0 ad EPA were calculated by subtracting therefrom the electrical resistance value of the membrane on which only the pericytes were cultured. […]

Q: How did the “reduction in TEER attributed to ischemia-reperfusion (reduction in tight junction function)” value turn out when CC1=NN(c2ccccc2)C(=O)C1 [edaravone] was run?
A: Its value is “significantly suppressed”.

Q: What about the “rise in Na—F permeability attributed to ischemia-reperfusion (reduction in tight junction function)” value of the same compound?
A: The value was “significantly suppressed”.
